The text below walks through data of patent US4235803A (priority 1978, dated 1980).

What is called ED50 is the dose at which the effect has come halfway, by size or by number of responders. The low end stands for greater potency, the high end for weaker potency. By LD50 is commonly meant the dose expected to kill half of the subjects tested.

Read-outs that look alike come from different tables or passages of the source.

Series [1] deals with S-180 sc. sarcoma. The experiment in a line: Tumor inhibiting effect on solid tumors: S-180 sc. sarcoma. The series is classed as in vivo, mouse. As to the method: (§1) Our tests were performed on various transplantable mouse and rat tumors. The following tumor strains were applied:
Mouse: SC-180 sc. sarcoma (solid)
(§2) The tests were always performed on animals of both sexes. At the beginning of the tests the average body weight of mice was 20 to 22 g, whereas that of rats 150 to 180 g. The animals were kept in plastic cages and fed with a standard laboratory animal feed (LATI, Godollo, Hungary). The animals received water ad libitum.
(§3) Solid tumors were transplanted by a subcutaneous implantation of tumor chips. Ascites type tumors were transplanted with 10^7 cells received from the ascites, whereas leukaemia type tumors were transplanted with spleen suspension. The treatment of the animals was started 24 hours after transplantation, with the only exception of Harding-Passey melanoma, when treatment was started on the 4th day after transplantation.
(§4) *Performed on groups of 8 animals

Series [2] concerns Harding-Passey melanoma. Kind of series: Tumor inhibiting effect on solid tumors: Harding-Passey melanoma. The series is classed as in vivo, mouse. The settings on record: treatment from 4th day after transplantation. How it is done: as §1
Harding-Passey melanoma
as §2, §3, §4

Series [3] deals with Walker sc. carcino-sarcoma. Kind of series: Tumor inhibiting effect on solid tumors: Walker sc. sarcoma. The series is classed as in vivo, rat. As to conditions: 10 mg/kg. As to the method:
as §1
Walker sc. carcino-sarcoma
as §2, §3, §4

In series [4] the test system is Yoshida sc. sarcoma. Kind of series: Comparison of the ED50 values on Yoshida sc. sarcoma of rats (transplanted solid tumor). The series is classed as in vivo, rat. The settings on record: for ED50: Rattus norvegicus, Yoshida sc. sarcoma of rats; for Relative activity: calculated by comparing the ED50 values. As to the method:
as §1
Rat: Yoshida sc. sarcoma
as §2, §3

The test system of series [5] is CFLP and BDF1 mice. Kind of series: Acute toxicity (LD50) on CFLP and BDF1 mice. As to conditions: in words. As to the method:
(§5) The tests were performed on groups consisting of 10 mice (5 males and 5 females), and the animals were kept under observation for 3 weeks.

Series [6] can be described thus: Acute toxicity (LD50) on CFLP and BDF1 mice. As to conditions: mouse, in vivo. How it is done:
as §5

Series [7] deals with Ehrlich asc. carcinoma. Kind of series: Tumor inhibiting effect on ascites type tumors: Ehrlich ascites carcinoma. The series is classed as in vivo, mouse. As to the method:
as §1, §2, §3
Healing=tumor-free survival of 90 days after transplantation

For series [8], the system named is transplantable mouse and rat tumors. The experiment in a line: Cytostatic effect / growth inhibition on transplantable mouse and rat tumors (overall statements). The series is classed as in vivo. As to conditions: in words. As to the method: as §1, §2, §3
The subject of series [9] is NK/Ly lymphoma. The experiment in a line: Tumor inhibiting effect on ascites type tumors: NK/Ly lymphoma. The series is classed as in vivo, mouse. As to conditions: 30 mg/kg, 4 × i.p. As to the method:
as §1, §2, §3

The subject of series [10] is S-180 sc. sarcoma. The settings on record: 200 mg/kg, 8 × i.p.; cited from earlier work.
Series [11] has as its system NK/Ly lymphoma. As to conditions: 125 mg/kg, 6 × i.p.; cited from earlier work.
The test system of series [12] is peripheral blood count (granulocytes, lymphocytes). Kind of series: Effect on peripheral blood count of rats (haematopoiesis). As to conditions: reference substances; in words.
In series [13] the test system is Walker sc. carcino-sarcoma. As to conditions: 100 mg/kg, 6 × i.p.; cited from earlier work.
Series [14] relates to CFLP and BDF1 mice. As to conditions: same animals, Nemeth et al. 1972, cited from earlier work.

For “1,6-dimesyl-1,6-dideoxy-D-mannitol [reference compound]”, the Inhibition in series [1] (300 mg/kg, 6 × i.p.) came to 31. The “Inhibition (toxicity reported in this column)” value in series [1] (500 mg/kg, 6 × i.p.) was “toxic”.
With `CO[C@@H]([C@H](OC)[C@H](O)COS(C)(=O)=O)[C@H](O)COS(C)(=O)=O` [compound of formula (I), 1,6-dimesyl-3,4-dimethyl-D-mannitol], the Inhibition in series [2] (30 mg/kg, 10 × p.o.) is reported as 31; in series [2] (100 mg/kg, 10 × p.o.), 52; in [3] (5 × i.p.), 90; in series [3] (5 × p.o.) it was 97; in series [1] (100 mg/kg, 4 × p.o.), 50; in series [1] (200 mg/kg, 6 × p.o.), 70. Further, the ED50 in [4] (ip) was found to be 20 mg/kg; in series [4] (po), 70 mg/kg. In addition, the toxicity entry in [5] is “low toxicity”. Moreover, the oral resorption result in [5] (inferred from i.p. vs oral LD50) is reported as “excellent oral resorption”. Also, the figures for the median lethal dose (LD50) at 504 h in series [6] (ip) and in [6] (po) were 1000 mg/kg and 1100 mg/kg, respectively. Moreover, the “Prol. of life span” value in [7] (100 mg/kg, 4 × i.p.) is recorded as 99.6%; in [9] it was 101%. Further, in series [7] (in words), the “effect on Ehrlich ascites tumor” value is “healing effect”. For the same compound, the cytostatic effect result in series [8] was “strong cytostatic effect”; in series [8] (listed as 1,6-dimesyl-3,4-dimethyl-D-mannitol), “extremely potent cytostatic agent”. For the same compound, the “cytostatic effect compared with Mannogranol, Myelobromol and Elobromol” value in series [8] is reported as “even more effective”. In series [8] (solid tumors, even in very low dosages compared to the toxic one), the “inhibition of the growth of solid tumors” value was “significantly inhibits the growth of solid tumors”.
In the case of `O[C@H]([C@H](O)[C@@H](O)CBr)[C@H](O)CBr` [1,6-dibromo-1,6-dideoxy-dulcitol], the Inhibition in series [2] (200 mg/kg, 13 × i.p.) is given as 67; in [10], 57; in series [13], 95. The same compound had an ED50 in series [4] (ip) of 50 mg/kg. Besides, the Relative activity in series [4] (i.p.) is 0.4. Further, the “Prol. of life span” value in series [11] is given as 90%. Besides, in [12], the “effect on haematopoiesis (formation of myeloid leukocytes)” value is “rather strong and selective action on the formation of myeloid leukocytes”. Also, the LD50 value in series [14] (i.p.) is listed as 900 mg/kg; in series [14] (p.o.) it was 1500 mg/kg.
`O[C@@H]([C@H](O)[C@H](O)CBr)[C@H](O)CBr` [1,6-dibromo-1,6-dideoxy-D-mannitol]: the ED50 in series [4] (ip) worked out at 490 mg/kg; in series [4] (po), 170 mg/kg. The Relative activity in series [4] (i.p.) is 0.04; in [4] (p.o.), 0.41. Besides, the “effect on haematopoiesis (formation of myeloid leukocytes)” value in [12] was “rather strong and selective action on the formation of myeloid leukocytes”.
`CS(=O)(=O)OC[C@@H](O)[C@@H](O)[C@H](O)[C@H](O)COS(C)(=O)=O` [1,6-Dimesyl-D-mannitol (Mannogranol), 1,6-dimesyl-D-mannitol]: the ED50 in series [4] (ip) stood at 500 mg/kg; in [4] (po), 600 mg/kg.
